Experiments:
[1] = test system: reuptake of noradrenaline and serotonin; details: in vivo; cited from earlier work
normal, health subjects [2] = experiment: Example 1A tolerability study, mirtazapine and 1S,2R-enriched milnacipran; details: 6 weeks, milnacipran with 1S,2R:1R,2S ratio about 55:45 to 90:10
Procedure: (§1) The subjects receive 2 capsules per day, one in the morning and one at bedtime. […] All medications are administered in an over-encapsulated format that ensures blinding of study participants, staff and investigators. All subjects are scheduled to receive a total of 6 weeks of therapy, and are required to return to the clinics after 1, 2, 4 and 6 weeks of therapy. Patients are required to complete paper self-assessments, electronic diary assessments, computer based cognitive testing, as well as vital signs and weight assessments at the clinic visits.

normal, health subjects [3] = experiment: Example 1 tolerability study, mirtazapine and milnacipran or duloxetine; details: 6 weeks, 15 mg mirtazapine or 100 mg milnacipran or duloxetine
Procedure: as §1

normal, health subjects [4] = experiment: Example 4 tolerability study, mirtazapine and milnacipran; details: 6 weeks, 15 mg mirtazapine or 50 mg milnacipran
Procedure: as §1

[5] = controlled studies; cited from earlier work
normal, health subjects [6] = experiment: Example 5 tolerability study, mirtazapine and duloxetine; type: in vivo, human; details: 6 weeks, 15 mg mirtazapine or 30 mg duloxetine
[7] = test system: patients with fibromyalgia; details: open study; cited from earlier work
[8] = test system: cancer patients with pain; details: open trial in cancer pain, 15 and 30 mg; cited from earlier work
[9] = test system: chronic tension type headache; details: controlled trial; cited from earlier work

Compound	potency for inhibiting the reuptake of both noradrenaline and serotonin [1]	side effects of the drug alone (normal, health subjects [2])	side effects of the drug alone (normal, health subjects [3])	side effects of the drug alone (normal, health subjects [4])	appetite increase reported, share of patients [5]	weight gain of greater than or equal to 7% of body weight reported, share of patients [5]	side effects of the drug alone (normal, health subjects [6])	activity in fibromyalgia pain [7]	depression levels [8]	pain intensity [8]	efficacy in chronic tension type headache [9]
CCN(CC)C(=O)[C@@]1(c2ccccc2)C[C@H]1CN (racemic) [milnacipran, cis-(±)-2-(aminomethyl)-N,N-diethyl-1-phenylcyclopropanecarboxamide]	nearly equal potency	causes insomnia, nausea/vomiting, and weight loss	causes insomnia, nausea/vomiting, and weight loss	causes insomnia, nausea/vomiting, and weight loss	–	–	–	–	–	–	–
CN(C)CCC=C1c2ccccc2CCc2ccccc21 [amitriptyline]	–	–	–	–	6%	5.9%	–	–	–	–	–
CNCC[C@H](Oc1cccc2ccccc12)c1cccs1 [duloxetine, (+)-(S)—N-methyl-3-(1-naphthyloxy)-3-(thiophen-2-yl)-propan-1-amine]	–	causes insomnia, nausea/vomiting, and weight loss	causes insomnia, nausea/vomiting, and weight loss	causes insomnia, nausea/vomiting, and weight loss	–	–	causes insomnia, nausea/vomiting, and weight loss	–	–	–	–
CN1CCN2c3ncccc3Cc3ccccc3C2C1 (stereo not drawn) [mirtazapine, 1,2,3,4,10,14b-hexahydro-2-methylpyrazino [2,1-a]pyrido[2,3-c]benzazepine]	–	does cause weight gain, sedation, and cognitive deficits	does cause weight gain, sedation, and cognitive deficits	does cause weight gain, sedation, and cognitive deficits	–	–	does cause weight gain, sedation, and cognitive deficits	has some activity in fibromyalgia pain	significant improvements were obtained in depression levels	pain intensity was not statistically improved	suggested efficacy in chronic tension type headache

— patent publication US20090048233A1, “Enhancing the Tolerability of a Seratonin Antagonist and a NSRI, a SNRI or a RIMA by Using Them in Combination” (CYPRESS BIOSCIENCES, INC., priority 2007, published 2009)
